Results from US7033773B1, “Screening assays for G protein coupled receptor agonists and antagonists” (The General Hospital Corporation, priority 1997, dated 2006).
Read-outs that look alike come from different tables or passages of the source. Where a SMILES comes first, the peptide text is derived from it. [ ]: non-standard residue; d: D form. Nle = CCCC[C@H](N)C(=O)O

Key:
human PTH/PTHrP receptor [1] = assay: Cytosolic free calcium (fura-2) in LLC-PK1 cells expressing human PTHR; settings: other experiments, hPTHR-expressing LLC-PK1 cells
Procedure: Cytosolic free calcium was measured in fura 2AM-loaded confluent monolayers of cells.
Cytosolic free calcium was measured by dual fluorescence in cells loaded with the Ca^2+-sensitive intracellular probe fura-2. Cells were seeded onto glass coverslips at a density of 40,000-600,000/cm^2 and incubated for 2 days as described above. Coverslips were washed twice with PBS before loading in phosphate-free Buffer B containing 4 uM of fura-2/AM (Molecular Probes, Eugene, Oreg.) for 30 min at room temperature (22° C.). After washing twice with fura-free Buffer B, the coverslips were mounted in a cuvette containing 2 ml of phosphate-free Buffer B at 37° C. and the emission at 510 nm in response to alternating excitation at 340 and 380 nm was monitored using a ratiometric PTI Deltascan fluorescence spectrometer with excitation and emission bandwidths of 2 nm. After achieving a stable baseline, agonists were introduced by exchange into 2 ml of fresh buffer to which 10-20 ul of concentrated agonist stock (or vehicle alone) had been added. Peptide stocks were prepared in 0.1% trifluoroacetic acid, ionomycin and phorbol esters were dissolved in dimethyl sulfoxide and all other additives were prepared in water. Maximum and minimum fluorescence signals were obtained by exposure to modified buffers containing 1 uM ionomycin plus 20 mM calcium or 2 mM EGTA in the nominal absence of calcium, respectively, and autofluorescence was estimated from signals obtained in the presence of ionomycin plus 2.5 mM MnCl2.

human PTH/PTHrP receptor [2] = biological target: T1, human PTH/PTHrP receptor (Homo sapiens, UniProt Q03431); assay: Urokinase-type plasminogen activator (u-PA) secretion bioassay in LLC-PK1 cells expressing human PTHR; settings: AB45 cells (hPTHR + REV AB dominant-negative PKA inhibitor), 16 hr
T1 sequence (Q03431 27-593): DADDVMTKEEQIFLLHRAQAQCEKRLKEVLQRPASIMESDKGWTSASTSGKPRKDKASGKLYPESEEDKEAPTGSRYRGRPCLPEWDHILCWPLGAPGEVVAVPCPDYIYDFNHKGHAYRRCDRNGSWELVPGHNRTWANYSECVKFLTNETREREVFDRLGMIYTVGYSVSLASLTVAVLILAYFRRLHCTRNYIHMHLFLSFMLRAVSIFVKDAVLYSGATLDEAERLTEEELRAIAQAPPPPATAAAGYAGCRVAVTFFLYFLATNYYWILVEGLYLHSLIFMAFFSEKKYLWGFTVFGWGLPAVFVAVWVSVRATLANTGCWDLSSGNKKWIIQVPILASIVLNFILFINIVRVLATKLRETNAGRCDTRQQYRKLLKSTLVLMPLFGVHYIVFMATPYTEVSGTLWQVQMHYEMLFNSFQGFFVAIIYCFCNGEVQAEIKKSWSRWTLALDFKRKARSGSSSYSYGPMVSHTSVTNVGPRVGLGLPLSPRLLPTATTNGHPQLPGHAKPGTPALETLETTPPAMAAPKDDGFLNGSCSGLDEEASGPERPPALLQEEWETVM
Procedure: Cells were seeded into 96-well plates at a density of 6×10^4 cells/well and used the following day. The cells were washed once with 0.2 ml and then refed with 0.1 ml of prewarmed DMEM containing 0.05% BSA. After adding each stimulator, plates were returned to the incubator at 37° C. for 16 h. Conditioned medium (5 ul) then was transferred from each well to a clean microplate. […] Activity was expressed in Ploug units/well, using purified human urokinase (Calbiochem) as a standard.
Cells were incubated with the indicated peptides (1000 nM) for 16 hr before measurement of secreted u-PA present in the medium, which was expressed as a percentage of the activity measured in vehicle-treated controls. Values shown are means±SEM of triplicate determinations.

rat PTHR = biological target: T2, rat PTHR (Rattus norvegicus, UniProt P25961); assay: Competitive radioligand (Scatchard) binding to rat PTHRs expressed in LLC-PK1 cells; settings: Scatchard analysis, read-out: Apparent Kd
T2 construct: expressed in transfected cells; host or cells: LLC-PK1 porcine renal epithelial cells (EW5; also EW29, AR-C38, AR-B44)
T2 sequence (P25961 27-591): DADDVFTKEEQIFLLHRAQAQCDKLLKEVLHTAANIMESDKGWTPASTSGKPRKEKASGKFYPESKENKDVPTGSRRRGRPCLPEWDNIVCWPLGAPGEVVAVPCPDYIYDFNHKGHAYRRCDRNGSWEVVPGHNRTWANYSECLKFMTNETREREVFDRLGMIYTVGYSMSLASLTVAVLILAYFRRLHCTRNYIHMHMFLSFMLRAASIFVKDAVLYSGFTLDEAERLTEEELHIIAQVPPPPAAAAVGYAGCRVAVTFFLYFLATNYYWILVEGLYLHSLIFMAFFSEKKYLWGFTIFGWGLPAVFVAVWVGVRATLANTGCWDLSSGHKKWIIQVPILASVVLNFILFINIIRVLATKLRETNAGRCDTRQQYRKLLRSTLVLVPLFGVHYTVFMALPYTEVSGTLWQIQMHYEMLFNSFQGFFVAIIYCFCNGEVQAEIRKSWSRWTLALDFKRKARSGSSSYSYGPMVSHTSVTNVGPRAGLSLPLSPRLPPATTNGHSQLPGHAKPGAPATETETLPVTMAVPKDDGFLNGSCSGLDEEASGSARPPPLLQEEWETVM
Procedure: (§1) In brief, the cells were seeded into 24-well plates at a density of 2.5×10^5 cells/well and cultured for a further 2 days before study. Cell layers were rinsed with ice-cold Buffer A [50 mM Tris-HCl (pH 7.7), 100 mM NaCl, 2 mM CaCl2, 5 mM KCl, 0.5% FBS, and 5% heat-inactivated horse serum] and then incubated with ^125I-labeled [Nle^8,18, Tyr^34]bovine (b) PTH(1-34) (1×10^5 cpm/well), with or without unlabeled peptide, in 0.5 ml of Buffer A for 6 h in the cold room (2-8° C.). […] All reagents, unless otherwise specified, were obtained from Sigma (St. Louis, Mo.), and all isotopes were purchased from Dupont-New England Nuclear (Boston, Mass.).

human PTH/PTHrP receptor [3] = biological target: T1, human PTH/PTHrP receptor; assay: Competitive radioligand (Scatchard) binding to human PTH/PTHrP receptors stably expressed in LLC-PK1 cells; design: transfected with a full-length human PTH/PTHrP receptor cDNA; expressed in transfected cells; settings: Scatchard analysis, read-out: Apparent Kd
Procedure: FIGS. 1A-1B and 1C-1D. Competitive radioligand binding to human PTH/PTHrp receptors stably expressed in LLC-PK1 cells. LLC-PK1 cells stably expressing (FIGS. 1A-1B) 950,000 receptors/cell (HKRK B7) or (FIGS. 1C-1D) 280,000 receptors/cell (HKRK B28) were incubated with ^125I-[Nle^8,18,Tyr^34]bPTH(1-34) in binding buffer for 6 hr at 15° C. in the presence or absence of increasing concentrations of nonradioactive ligand. Scatchard plots are shown in the insets. Each point represents the mean± of triplicate determinations. Total radioligand bound ranged from 15,000-30,000 cpm/well, and nonspecific binding was 2-5% of total binding.
as §1
Radioligand competition assays and Scatchard analyses for two representative cell lines, HKRK B7 and HKRK B28, which express 950,000 and 280,000 hPTHRs per cell, respectively, are shown in FIGS. 1A-1D. […] In each case, the Scatchard analysis was linear, consistent with a single class of high affinity binding sites. The subsequent example described below was conducted with two cell lines, which were chosen as representative of those expressing relatively high (HKRK B7) and low (HKRK B28) densities of hPTHRs, respectively.

Q: With `CCCCCCCCCCCCCC(=O)O[C@@H]1[C@@H](C)[C@@]2(O)[C@@H](C=C(CO)C[C@]3(O)C(=O)C(C)=C[C@@H]23)[C@H]2C(C)(C)[C@]12OC(C)=O` [TPA] as the compound, how does the “calcium responses to PKA/PKC activators” value (human PTH/PTHrP receptor [1]) read?
A: failed to elicit calcium responses

Q: And the “u-PA response in cAMP-resistant cells (in words)” value (human PTH/PTHrP receptor [2])?
A: well-maintained

Q: For `CCCC[C@H](NC(=O)[C@H](CO)NC(=O)[C@H](CO)NC(=O)[C@H](CC(C)C)NC(=O)[C@H](Cc1c[nH]cn1)NC(=O)[C@H](CCCCN)NC(=O)CNC(=O)[C@H](CC(C)C)NC(=O)[C@H](CC(N)=O)NC(=O)[C@H](Cc1c[nH]cn1)NC(=O)[C@H](CCCC)NC(=O)[C@H](Cc1ccccc1)NC(=O)[C@H](CCC(N)=O)NC(=O)[C@@H](NC(=O)[C@H](CCC(=O)O)NC(=O)[C@H](CO)NC(=O)[C@@H](NC(=O)[C@H](C)N)C(C)C)[C@@H](C)CC)C(=O)N[C@@H](CCC(=O)O)C(=O)N[C@@H](CCCNC(=N)N)C(=O)N[C@H](C(=O)N[C@@H](CCC(=O)O)C(=O)N[C@@H](Cc1c[nH]c2ccccc12)C(=O)N[C@@H](CC(C)C)C(=O)N[C@@H](CCCNC(=N)N)C(=O)N[C@@H](CCCCN)C(=O)N[C@@H](CCCCN)C(=O)N[C@@H](CC(C)C)C(=O)N[C@@H](CCC(N)=O)C(=O)N[C@@H](CC(=O)O)C(=O)N[C@H](C(=O)N[C@@H](Cc1c[nH]cn1)C(=O)N[C@@H](CC(N)=O)C(=O)N[C@@H](Cc1ccc(O)cc1)C(N)=O)C(C)C)C(C)C` [[Nle^8,18, Tyr^34]bPTH(1-34), [Nle^8,18, Tyr^34]bovine (b) PTH(1-34)] (H-AVSEIQF[Nle]HNLGKHLSS[Nle]ERVEWLRKKLQDVHNY-NH2; N-terminus assumed), which Kd (rat PTHR; EW5 cells, 320 x10^3 rat receptors/cell) is on record?
A: 2.3 nM

Q: And the Kd (rat PTHR; EW29 cells, 190 x10^3 rat receptors/cell)?
A: 2.5 nM

Q: And the Kd (human PTH/PTHrP receptor [3]; HKRH C58 cells, 1030 x10^3 receptors/cell)?
A: 3.6 nM

Q: What about the Kd (human PTH/PTHrP receptor [3]; HKRK B5 cells, 840 x10^3 receptors/cell) of the same compound?
A: 3.9 nM

Q: What about the Kd (human PTH/PTHrP receptor [3]; HKRK B7 cells, 950 x10^3 receptors/cell) of the same compound?
A: 4.5 nM

Q: What about the Kd (human PTH/PTHrP receptor [3]; HKRK B28 cells, 280 x10^3 receptors/cell) of the same compound?
A: 1.8 nM

Q: What about the Kd (human PTH/PTHrP receptor [3]; HKRK B54 cells, 1020 x10^3 receptors/cell) of the same compound?
A: 6.4 nM

Q: What about the Kd (human PTH/PTHrP receptor [3]; HKRK B57 cells, 900 x10^3 receptors/cell) of the same compound?
A: 5.6 nM

Q: What about the Kd (human PTH/PTHrP receptor [3]; HKRK B64 cells, 90 x10^3 receptors/cell) of the same compound?
A: 1.3 nM

Q: What about the Kd (human PTH/PTHrP receptor [3]; HKRK C27 cells, 340 x10^3 receptors/cell) of the same compound?
A: 2.2 nM

Q: What about the Kd (human PTH/PTHrP receptor [3]; HKRK C30 cells, 600 x10^3 receptors/cell) of the same compound?
A: 2.8 nM

Q: And the Kd (human PTH/PTHrP receptor [3]; HKRK C53 cells, 120 x10^3 receptors/cell)?
A: 1.2 nM

Q: And the Kd (human PTH/PTHrP receptor [3]; HKRK C101 cells, 330 x10^3 receptors/cell)?
A: 1.6 nM
